The values that follow come from PMC2248166, “Quantitative peptide binding motifs for 19 human and mouse MHC class I molecules derived using positional scanning combinatorial peptide libraries” (Immunome Research, 2008).

Where a SMILES comes first, the peptide text is derived from it.

For this test, the target named is HLA B*1501 (Homo sapiens, UniProt P01889, A329T/A93T/A95T/C349S/D201E/D98Y/E187L/E204Q/E69M/E70A/K202T/N87E/Q94N/R155S/R180W/S121R/S35A/S48A/V306I/V36M/Y140S/Y91S). Put plainly: biochemical. Type of test: binding.
One may read the IC50 as the point on the concentration scale where inhibition reaches its midpoint. A low value points to greater potency in that assay. Compound `CC[C@H](C)[C@H](NC(=O)[C@H](Cc1c[nH]cn1)NC(=O)[C@H](CC(=O)O)NC(=O)[C@H](Cc1c[nH]cn1)NC(=O)[C@H](CO)NC(=O)[C@@H](N)Cc1ccccc1)C(=O)NCC(=O)N[C@@H](Cc1c[nH]cn1)C(=O)NCC(=O)O` [3102.0897] (H-FSHDHIGHG-OH) showed an IC50 of 0.032 µM. `CC[C@H](C)[C@H](NC(=O)[C@H](CCSC)NC(=O)[C@@H](N)CCSC)C(=O)N[C@@H](CC(=O)O)C(=O)N[C@@H](CC(=O)O)C(=O)N[C@@H](Cc1ccccc1)C(=O)NCC(=O)N[C@H](C(=O)N[C@@H](C)C(=O)O)[C@@H](C)O` [3102.0898] (H-MMIDDFGTA-OH) had a concentration for half-maximal inhibition (IC50) of 0.0076 µM. In the case of `CC[C@H](C)[C@H](NC(=O)[C@@H](N)CC(C)C)C(=O)N[C@@H](CC(N)=O)C(=O)N[C@@H](CC(N)=O)C(=O)NCC(=O)N[C@@H](CCCCN)C(=O)N[C@@H](CS)C(=O)N[C@H](C(=O)N[C@@H](Cc1ccccc1)C(=O)O)[C@@H](C)O` [3102.0899] (H-LINNGKCTF-OH) it was 0.062 µM; in that of `CC[C@H](C)[C@H](N)C(=O)N[C@@H](CC(C)C)C(=O)N[C@@H](CCCCN)C(=O)N[C@@H](CCCCN)C(=O)N[C@@H](CC(C)C)C(=O)N[C@@H](CO)C(=O)N1CCC[C@H]1C(=O)N[C@@H](Cc1ccc(O)cc1)C(=O)N[C@@H](Cc1ccccc1)C(=O)O` [3102.0903] (H-ILKKLSPYF-OH), 0.0012 µM. In turn, `CC[C@H](C)[C@H](NC(=O)[C@H](C)NC(=O)[C@H](CC(N)=O)NC(=O)[C@H](Cc1ccccc1)NC(=O)[C@H](CC(C)C)NC(=O)[C@@H](N)Cc1ccc(O)cc1)C(=O)N[C@@H](CCC(=O)O)C(=O)N[C@H](C(=O)N[C@@H](CCSC)C(=O)O)[C@@H](C)O` [3102.0905] (H-YLFNAIETM-OH) showed an IC50 of 0.0014 µM. In the case of `CSCC[C@H](N)C(=O)N[C@@H](Cc1ccc(O)cc1)C(=O)N[C@@H](CCCCN)C(=O)N[C@@H](CCCCN)C(=O)N[C@@H](C)C(=O)N[C@@H](CCC(=O)O)C(=O)N[C@@H](C)C(=O)N[C@@H](CO)C(=O)N[C@@H](Cc1ccccc1)C(=O)O` [3102.0906] (H-MYKKAEASF-OH) it was 0.069 µM; in that of `CC[C@H](C)[C@H](NC(=O)[C@H](Cc1ccccc1)NC(=O)[C@@H](N)Cc1ccc(O)cc1)C(=O)N[C@@H](CCCCN)C(=O)N[C@@H](Cc1c[nH]cn1)C(=O)N[C@H](C(=O)N[C@@H](CC(C)C)C(=O)N[C@@H](C)C(=O)N[C@@H](Cc1ccccc1)C(=O)O)C(C)C` [3102.0907] (H-YFIKHVLAF-OH), 0.0025 µM. `CC[C@H](C)[C@H](NC(=O)[C@H](CCC(=O)O)NC(=O)[C@H](CS)NC(=O)[C@H](CCCNC(=N)N)NC(=O)[C@@H](NC(=O)[C@@H](N)CCCCN)[C@@H](C)CC)C(=O)N[C@H](C(=O)N[C@@H](CO)C(=O)N[C@@H](Cc1ccccc1)C(=O)O)[C@@H](C)O` [3102.0909] (H-KIRCEITSF-OH) registered an IC50 of 0.0043 µM. In the case of `CC[C@H](C)[C@H](NC(=O)[C@@H](N)CCC(=O)O)C(=O)N[C@@H](C)C(=O)N[C@@H](CCCCN)C(=O)N[C@@H](Cc1ccc(O)cc1)C(=O)NCC(=O)N[C@@H](Cc1c[nH]cn1)C(=O)N[C@@H](CO)C(=O)N[C@@H](Cc1ccccc1)C(=O)O` [3102.0911] (H-EIAKYGHSF-OH) it was 0.058 µM; in that of `CSCC[C@H](NC(=O)[C@@H](N)CCCNC(=N)N)C(=O)N[C@@H](Cc1ccccc1)C(=O)N[C@@H](Cc1c[nH]cn1)C(=O)N[C@@H](Cc1ccccc1)C(=O)N[C@@H](Cc1ccccc1)C(=O)N[C@@H](CCC(=O)O)C(=O)N[C@@H](Cc1c[nH]cn1)C(=O)N[C@@H](CCC(=O)O)C(=O)O` [3102.0915] (H-RMFHFFEHE-OH), 0.067 µM; in that of `CC[C@H](C)[C@H](NC(=O)[C@@H]1CCCN1C(=O)[C@H](CCC(=O)O)NC(=O)[C@H](CC(N)=O)NC(=O)[C@H](CO)NC(=O)[C@H](CC(=O)O)NC(=O)[C@H](Cc1ccccc1)NC(=O)[C@H](CC(C)C)NC(=O)[C@@H](N)CC(C)C)C(=O)O` [3102.0916] (H-LLFDSNEPI-OH), 0.016 µM. With `CC[C@H](C)[C@H](NC(=O)[C@H](C)NC(=O)[C@@H](N)Cc1ccccc1)C(=O)N[C@@H](CO)C(=O)N[C@@H](Cc1ccc(O)cc1)C(=O)N[C@@H](CS)C(=O)N[C@@H](CCCNC(=N)N)C(=O)N[C@@H](C)C(=O)N[C@@H](Cc1ccccc1)C(=O)O` [3102.0920] (H-FAISYCRAF-OH), the concentration for half-maximal inhibition (IC50) turned out to be 0.076 µM. In the case of `CSCC[C@H](NC(=O)[C@H](CCCNC(=N)N)NC(=O)[C@H](CS)NC(=O)[C@@H]1CCCN1C(=O)[C@H](CO)NC(=O)[C@@H](N)CCSC)C(=O)N[C@@H](Cc1ccccc1)C(=O)N[C@@H](CO)C(=O)N[C@@H](Cc1ccccc1)C(=O)O` [3102.0921] (H-MSPCRMFSF-OH) it was 0.017 µM; in that of `CC(C)C[C@H](NC(=O)[C@H](CO)NC(=O)[C@H](CCCCN)NC(=O)[C@H](CC(C)C)NC(=O)[C@@H](N)CO)C(=O)N[C@@H](Cc1ccc(O)cc1)C(=O)N[C@@H](CCC(=O)O)C(=O)N[C@@H](C)C(=O)N[C@@H](Cc1ccccc1)C(=O)O` [3102.0923] (H-SLKSLYEAF-OH), 0.02 µM; in that of `CC(C)C[C@H](NC(=O)[C@H](CS)NC(=O)[C@H](CCCCN)NC(=O)[C@H](CCCCN)NC(=O)[C@H](Cc1ccccc1)NC(=O)[C@H](CO)NC(=O)[C@@H](N)Cc1ccccc1)C(=O)N[C@H](C(=O)N[C@@H](Cc1ccc(O)cc1)C(=O)O)C(C)C` [3102.0925] (H-FSFKKCLVY-OH), 0.0047 µM.

Compound `CC[C@H](C)[C@H](NC(=O)[C@H](CO)NC(=O)[C@@H](N)CCCNC(=N)N)C(=O)N[C@@H](CO)C(=O)N[C@@H](CCCNC(=N)N)C(=O)N[C@H](C(=O)N[C@@H](CCC(=O)O)C(=O)N[C@@H](CC(N)=O)C(=O)N[C@@H](Cc1ccccc1)C(=O)O)[C@@H](C)O` [3102.0929] (H-RSISRTENF-OH) yielded an IC50 of 0.0048 µM. Next, `CC[C@H](C)[C@H](N)C(=O)N[C@@H](CO)C(=O)N[C@@H](CCCCN)C(=O)N[C@@H](CC(N)=O)C(=O)N[C@@H](C)C(=O)N[C@@H](Cc1ccccc1)C(=O)N[C@@H](CO)C(=O)N[C@@H](CS)C(=O)N[C@@H](CCSC)C(=O)O` [3102.0935] (H-ISKNAFSCM-OH): 0.078 µM; `CSCC[C@H](NC(=O)[C@H](CCC(N)=O)NC(=O)[C@H](CO)NC(=O)[C@H](CO)NC(=O)[C@@H](N)CC(C)C)C(=O)N[C@H](C(=O)N[C@@H](CO)C(=O)N[C@H](C(=O)N[C@@H](Cc1ccccc1)C(=O)O)[C@@H](C)O)[C@@H](C)O` [3102.0940] (H-LSSQMTSTF-OH): 0.004 µM.

With `CSCC[C@H](NC(=O)[C@H](CO)NC(=O)[C@@H](NC(=O)[C@H](CC(C)C)NC(=O)[C@H](CCCCN)NC(=O)[C@H](CO)NC(=O)[C@@H](N)Cc1ccc(O)cc1)[C@@H](C)O)C(=O)N[C@@H](Cc1c[nH]cn1)C(=O)N[C@@H](Cc1ccccc1)C(=O)O` [3102.0944] (H-YSKLTSMHF-OH), the concentration for half-maximal inhibition (IC50) is 0.00057 µM. `CC[C@H](C)[C@H](NC(=O)[C@H](CO)NC(=O)[C@@H](N)CCSC)C(=O)N[C@H](C(=O)N[C@@H](CO)C(=O)N[C@@H](Cc1ccccc1)C(=O)N[C@@H](Cc1ccccc1)C(=O)N1CCC[C@H]1C(=O)N[C@@H](Cc1ccccc1)C(=O)O)[C@@H](C)CC` [3102.0947] (H-MSIISFFPF-OH): it took 0.00017 µM to reach half-maximal inhibition (IC50). With `CC[C@H](C)[C@H](NC(=O)[C@@H](N)CO)C(=O)N[C@@H](CCCCN)C(=O)N[C@@H](CC(N)=O)C(=O)N[C@@H](CC(C)C)C(=O)N[C@H](C(=O)N[C@@H](CO)C(=O)N[C@@H](CCC(N)=O)C(=O)N[C@@H](Cc1ccccc1)C(=O)O)C(C)C` [3102.0951] (H-SIKNLVSQF-OH), half-maximal inhibition (IC50) was put at 0.025 µM. In the case of `CC(C)C[C@H](NC(=O)[C@H](Cc1ccc(O)cc1)NC(=O)[C@H](Cc1ccccc1)NC(=O)[C@@H](NC(=O)[C@H](CC(N)=O)NC(=O)[C@H](CCCCN)NC(=O)[C@H](CO)NC(=O)[C@@H](N)CC(C)C)[C@@H](C)O)C(=O)N[C@@H](Cc1ccccc1)C(=O)O` [3102.0952] (H-LSKNTFYLF-OH), the IC50 was found to be 0.014 µM. Regarding `CC[C@H](C)[C@H](NC(=O)[C@@H](NC(=O)[C@H](Cc1ccccc1)NC(=O)[C@H](CCCCN)NC(=O)[C@H](CCC(N)=O)NC(=O)[C@@H](N)CCSC)[C@@H](C)O)C(=O)N[C@@H](CC(C)C)C(=O)N[C@@H](CCC(=O)O)C(=O)N[C@@H](Cc1ccc(O)cc1)C(=O)O` [3102.0953] (H-MQKFTILEY-OH), the IC50 was 0.01 µM.

`CC[C@H](C)[C@H](NC(=O)[C@H](CCCNC(=N)N)NC(=O)[C@H](Cc1ccc(O)cc1)NC(=O)[C@H](CCC(N)=O)NC(=O)[C@@H](NC(=O)[C@@H](N)CC(C)C)C(C)C)C(=O)N[C@@H](CC(C)C)C(=O)N1CCC[C@H]1C(=O)N[C@@H](CCSC)C(=O)O` [3102.0954] (H-LVQYRILPM-OH) came in with an IC50 of 0.063 µM. With `CC[C@H](C)[C@H](NC(=O)[C@H](CCC(=O)O)NC(=O)[C@@H](N)CCC(=O)O)C(=O)N[C@@H](CO)C(=O)N[C@H](C(=O)N[C@@H](CO)C(=O)N[C@@H](CC(C)C)C(=O)N[C@@H](CO)C(=O)N[C@@H](Cc1ccccc1)C(=O)O)[C@@H](C)O` [3102.0958] (H-EEISTSLSF-OH), half-maximal inhibition (IC50) required 0.0021 µM. With `CC(C)C[C@H](NC(=O)[C@H](CC(N)=O)NC(=O)[C@H](C)NC(=O)[C@H](CO)NC(=O)[C@@H](N)CC(C)C)C(=O)N[C@@H](Cc1ccccc1)C(=O)N[C@@H](CCC(=O)O)C(=O)N[C@@H](CO)C(=O)N[C@@H](CCC(N)=O)C(=O)O` [3102.0959] (H-LSANLFESQ-OH), the IC50 was 0.045 µM. With `C[C@H](NC(=O)[C@H](CO)NC(=O)[C@@H](N)CCCNC(=N)N)C(=O)N[C@@H](CC(N)=O)C(=O)N[C@H](C(=O)N[C@@H](CO)C(=O)N[C@@H](C)C(=O)N1CCC[C@H]1C(=O)N[C@@H](Cc1ccccc1)C(=O)O)[C@@H](C)O` [3102.0964] (H-RSANTSAPF-OH), the IC50 was found to be 0.00068 µM. In turn, `CC[C@H](C)[C@H](NC(=O)CNC(=O)[C@@H](NC(=O)[C@H](CCCCN)NC(=O)[C@@H](NC(=O)[C@@H](N)CCC(=O)O)[C@@H](C)CC)[C@@H](C)O)C(=O)N[C@@H](CO)C(=O)N[C@@H](CO)C(=O)N[C@@H](Cc1ccccc1)C(=O)O` [3102.0969] (H-EIKTGISSF-OH) displayed an IC50 of 0.09 µM.
